From patent US9149041B2, “Stabilized and activated bromine solutions as a biocide and as an antifouling agent” (Bromine Compounds Ltd., priority 2009, dated 2015)

Columns and labels:
Assay type in all cases: cell-based
[1] = tested on: Pseudomonas aeruginosa (ATCC 15442) entrapped in alginate gel beads; experiment: Biocidal activity against simulated biofilm systems (alginate beads), Example 60
Experimental: The biofilm simulation was created by entrapping bacteria in alginate gel beads. […] Buffer phosphate at pH 7.2 was used to scrap off the bacteria from the agar plate and to create a suspension. The bacterial suspension was mixed with an equal volume of an aqueous 4% sodium alginate solution, to make a final 2% alginate solution. The alginate and bacterial slurry were placed in a 50 ml syringe attached to a gauge needle (22), connected to a compressed air tank, allowing the syringe to be pressurized. At 20 psig pressure a stream of small drops was forced out and dropped into a stirred solution of 50 mM CaCl2. The Ca^+2 hardened the alginate, and semi solid beads with entrapped bacterial cells were formed. The beads were allowed to stir in the CaCl2 solution for about 20 minutes, and then rinsed in a dilute 5 mM CaCl2 solution. Several flasks containing 100 beads each were incubated overnight at 35° C. on a rotating shaker in a buffer solution (at pH 7) with 5 mM addition of CaCl2 to maintain the beads structure. The resulting beads diameter is about 2 mm.
The neutralizer-citrate solution was placed in the refrigerator for 2 hours, than diluted and placed on R2A agar plates using pour plate technique. The plates were incubated at 35° C. for 24-48 hours and counted. The efficacy and toxicity of the neutralizer were checked as well as a control experiment without biocide addition. Four concentrations (0.5, 1, 2.5 and 5 ppm) were tested at four different contact times (5, 15, 30, and 60 min). […] In addition, the efficacy of bromourea from chlorourea and NaBr (1:0.5 molar ratio) was tested at the same concentrations (mentioned above) and after a long contact time of 24 hours (Table 23).

[2] = tested on: Pseudomonas aeruginosa (ATCC 15442); experiment: Microbial efficacy (% bacteria killed) at different TOC loading against Pseudomonas aeruginosa (Example 60)
Experimental: Pseudomonas aeruginosa (ATCC 15442) […]
2) 1 ml of each sample was inoculated on R2A agar (pour plate method). The result stands for the bacteria count at zero time. […]
(§1) 4) After 30 min. of shaking (100 rpm), 1 ml of each sample was transferred to a tube filled with 9 ml of the neutralization solution. An aliquot of 1 ml was taken from this solution and added to another tube containing 9 ml of buffer solution. The solution was mixed under vortex. This operation was repeated for 4 more times.
(§2) 5) 1 ml from the two lowest dilutions was inoculated on a R2A agar (by the pour plate method).
(§3) 6) After the plates were incubated at 25° C. for 5-7 days, the bacteria count was recorded.
7) The above experiment was repeated with Pseudomonas aeruginosa ATCC 15442 (instead of using an inoculums from sludge), which is representative bacteria that form biofilms.
Microbial efficacy of different biocides against Pseudomonas aeruginosa (ATCC 15442) replacing the use activated sludge bacteria.

[3] = tested on: Inoculum of bacteria (Activated sludge taken from Domestic Waste Water treatment Plant—Haifa); experiment: Microbial efficacy (% bacteria killed) at different TOC loading, activated sludge inoculum (Example 60); settings: 30 min, pH 7
Experimental: (§4) Inoculum of bacteria (Activated sludge taken from Domestic Waste Water treatment Plant—Haifa).
(§5) R2A agar for general counting.
(§6) Tryptone, in amounts 0.025, 0.119, and 0.239 g solid tryptone respectively, was weighed and dissolved in 1 liter of buffer.
Neutralization solution (NaHSO4). […]
1) 1 ml of inoculum was added to tryptone solutions (placed in 3 Erlenmeyers, 100 ml each, with different concentrations of TOC-0, 10 and 50 ppm).
(§7) 2) 1 ml of each sample was inoculated on R2A agar (pour plate method). The result stands for the bacteria count at zero time.
3) For each of the tryptone concentrations (0, 10, 50 ppm TOC) an inoculum of bacteria (1 ml) and the appropriate biocide concentration were added.
as §1, §2, §3

[4] = tested on: Inoculum of bacteria (Activated sludge taken from Domestic Waste Water treatment Plant—Haifa); experiment: Microbial efficacy (% kill) at different TOC loading, activated sludge inoculum (Examples 12-13); settings: TOC 100 ppm, 30 min, pH 7
Experimental: as §4, §5, §6
Neutralization solution (NaHSO4).
The biocidal efficacy of the antifouling composition at different organic loads of 0, […], 50 and 100 ppm TOC, was examined under different biocidal concentrations (1, 2.5, and 5 ppm) at pH 7.
1) 1 ml of inoculum was added to tryptone solutions (placed in […], 100 ml each, with different concentrations of TOC-0, 10, 50 and 100 ppm).
as §7
3) For each of the tryptone concentrations (0, 10, 50, 100 ppm TOC) an inoculum of bacteria (1 ml) and the appropriate biocide concentration were added.
as §1, §2, §3

[5] = biocide 0.5 ppm as Cl2, contact time 0 (initial count)
[6] = biocide 0.5 ppm as Cl2, contact time 5 min
[7] = biocide 0.5 ppm as Cl2, contact time 15 min
[8] = biocide 0.5 ppm as Cl2, contact time 30 min
[9] = biocide 0.5 ppm as Cl2, contact time 60 min
[10] = biocide 1 ppm as Cl2, contact time 0 (initial count)
[11] = biocide 1 ppm as Cl2, contact time 5 min
[12] = biocide 1 ppm as Cl2, contact time 15 min
[13] = biocide 1 ppm as Cl2, contact time 30 min
[14] = biocide 1 ppm as Cl2, contact time 60 min
[15] = biocide 2.5 ppm as Cl2, contact time 0 (initial count)
[16] = biocide 2.5 ppm as Cl2, contact time 5 min
[17] = biocide 2.5 ppm as Cl2, contact time 15 min
[18] = biocide 2.5 ppm as Cl2, contact time 30 min
[19] = biocide 2.5 ppm as Cl2, contact time 60 min
[20] = biocide 5 ppm as Cl2, contact time 0 (initial count)
[21] = biocide 5 ppm as Cl2, contact time 5 min
[22] = biocide 5 ppm as Cl2, contact time 15 min
[23] = biocide 5 ppm as Cl2, contact time 30 min
[24] = biocide 5 ppm as Cl2, contact time 60 min
[25] = TOC 0 ppm, biocide 2.5 ppm as Cl2
[26] = TOC 0 ppm, biocide 5 ppm as Cl2
[27] = TOC 0 ppm, biocide 10 ppm as Cl2
[28] = TOC 10 ppm, biocide 2.5 ppm as Cl2
[29] = TOC 10 ppm, biocide 5 ppm as Cl2
[30] = TOC 10 ppm, biocide 10 ppm as Cl2
[31] = TOC 50 ppm, biocide 2.5 ppm as Cl2
[32] = TOC 50 ppm, biocide 5 ppm as Cl2
[33] = TOC 50 ppm, biocide 10 ppm as Cl2
[34] = TOC 100 ppm, biocide 2.5 ppm as Cl2
[35] = TOC 100 ppm, biocide 5 ppm as Cl2

NC(=O)NCl [chlorourea]
survival of bacteria (CFU) [1, 5]: 8.40 × 10^7 CFU | survival of bacteria (CFU) [1, 6]: 5.90 × 10^6 CFU | survival of bacteria (CFU) [1, 7]: 5.30 × 10^6 CFU | survival of bacteria (CFU) [1, 8]: 5.60 × 10^6 CFU | survival of bacteria (CFU) [1, 9]: 2.25 × 10^6 CFU | survival of bacteria (CFU) [1, 10]: 8.40 × 10^7 CFU | survival of bacteria (CFU) [1, 11]: 7.50 × 10^6 CFU | survival of bacteria (CFU) [1, 12]: 7.20 × 10^6 CFU | survival of bacteria (CFU) [1, 13]: 9.40 × 10^5 CFU | survival of bacteria (CFU) [1, 14]: 9.13 × 10^2 CFU | survival of bacteria (CFU) [1, 15]: 8.40 × 10^7 CFU | survival of bacteria (CFU) [1, 16]: 7.80 × 10^6 CFU | survival of bacteria (CFU) [1, 17]: 2.60 × 10^6 CFU | survival of bacteria (CFU) [1, 18]: 2.21 × 10^3 CFU | survival of bacteria (CFU) [1, 19]: 1.00 × 10^0 CFU | survival of bacteria (CFU) [1, 20]: 8.40 × 10^7 CFU | survival of bacteria (CFU) [1, 21]: 6.70 × 10^6 CFU | survival of bacteria (CFU) [1, 22]: 6.50 × 10^4 CFU | survival of bacteria (CFU) [1, 23]: 1.00 × 10^0 CFU | survival of bacteria (CFU) [1, 24]: 1.00 × 10^0 CFU | % bacteria killed [2, 25]: 93.33% | % bacteria killed [2, 26]: 99.33% | % bacteria killed [2, 27]: 100% | % bacteria killed [2, 28]: 93.77% | % bacteria killed [2, 29]: 99.77% | % bacteria killed [2, 30]: 100% | % bacteria killed [2, 31]: 94.93% | % bacteria killed [2, 32]: 99.81% | % bacteria killed [2, 33]: 100% | % bacteria killed [2, 34]: 94.20% | % bacteria killed [2, 35]: 99.77% | % bacteria killed ([2]; biocide 10 ppm as Cl2): 100% | % bacteria killed [3, 25]: 56.09% | % bacteria killed [3, 26]: 75.17% | % bacteria killed [3, 27]: 80.46% | % bacteria killed [3, 28]: 67.59% | % bacteria killed [3, 29]: 72.64% | % bacteria killed [3, 30]: 85.06% | % bacteria killed [3, 31]: 64.37% | % bacteria killed [3, 32]: 72.41% | % bacteria killed [3, 33]: 78.85%

NC(=O)NBr [bromourea]
% bacteria killed [2, 25]: 100% | % bacteria killed [2, 26]: 100% | % bacteria killed [2, 27]: 100% | % bacteria killed [2, 28]: 100% | % bacteria killed [2, 29]: 100% | % bacteria killed [2, 30]: 100% | % bacteria killed [2, 31]: 0% | % bacteria killed [2, 32]: 99.36% | % bacteria killed [2, 33]: 100% | % bacteria killed [2, 34]: 0% | % bacteria killed [2, 35]: 7.14% | % bacteria killed ([2]; biocide 10 ppm as Cl2): 100% | % bacteria killed [3, 25]: 99.14% | % bacteria killed [3, 26]: 98.59% | % bacteria killed [3, 27]: 99.88% | % bacteria killed [3, 28]: 95.48% | % bacteria killed [3, 29]: 99.64% | % bacteria killed [3, 30]: 99.89% | % bacteria killed [3, 31]: 7.34% | % bacteria killed [3, 32]: 91.16% | % bacteria killed [3, 33]: 97.69%

[Na+].[O-]Cl [NaOCl, reference compound]
survival of bacteria (CFU) [1, 5]: 8.00 × 10^6 CFU | survival of bacteria (CFU) [1, 6]: 7.90 × 10^6 CFU | survival of bacteria (CFU) [1, 7]: 5.65 × 10^6 CFU | survival of bacteria (CFU) [1, 8]: 4.72 × 10^6 CFU | survival of bacteria (CFU) [1, 9]: 5.00 × 10^6 CFU | survival of bacteria (CFU) [1, 10]: 8.00 × 10^6 CFU | survival of bacteria (CFU) [1, 11]: 4.40 × 10^6 CFU | survival of bacteria (CFU) [1, 12]: 3.30 × 10^6 CFU | survival of bacteria (CFU) [1, 13]: 2.15 × 10^6 CFU | survival of bacteria (CFU) [1, 14]: 1.20 × 10^6 CFU | survival of bacteria (CFU) [1, 15]: 8.00 × 10^6 CFU | survival of bacteria (CFU) [1, 16]: 3.60 × 10^6 CFU | survival of bacteria (CFU) [1, 17]: 1.83 × 10^6 CFU | survival of bacteria (CFU) [1, 18]: 7.60 × 10^6 CFU | survival of bacteria (CFU) [1, 19]: 1.95 × 10^5 CFU | survival of bacteria (CFU) [1, 20]: 8.00 × 10^6 CFU | survival of bacteria (CFU) [1, 21]: 1.74 × 10^6 CFU | survival of bacteria (CFU) [1, 22]: 6.80 × 10^6 CFU | survival of bacteria (CFU) [1, 23]: 3. × 10^6 CFU | survival of bacteria (CFU) [1, 24]: 1.00 × 10^0 CFU | % bacteria killed [2, 25]: 100% | % bacteria killed [2, 26]: 100% | % bacteria killed [2, 27]: 100% | % bacteria killed [2, 28]: 43.10% | % bacteria killed [2, 29]: 100% | % bacteria killed [2, 30]: 100% | % bacteria killed [2, 31]: 17.24% | % bacteria killed [2, 32]: 18.97% | % bacteria killed [2, 33]: 100% | % bacteria killed [2, 34]: 0% | % bacteria killed [2, 35]: 27.59% | % bacteria killed ([2]; biocide 10 ppm as Cl2): 90.86% | % bacteria killed ([3]; TOC 0 ppm, biocide 1 ppm as Cl2): 54.1% | % bacteria killed [3, 25]: 95.5% | % bacteria killed [3, 26]: 99.6% | % bacteria killed ([3]; TOC 10 ppm, biocide 1 ppm as Cl2): 3.7% | % bacteria killed [3, 28]: 34.6% | % bacteria killed [3, 29]: 97.1% | % bacteria killed ([3]; TOC 50 ppm, biocide 1 ppm as Cl2): 0% | % bacteria killed [3, 31]: 12.7% | % bacteria killed [3, 32]: 65.9% | % kill ([4]; biocide 1 ppm as Cl2): 0% | % kill ([4]; biocide 2.5 ppm as Cl2): 0% | % kill ([4]; biocide 5 ppm as Cl2): 0%
